Laboratory results published in PubChem BioAssay (NCI).
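At the GI50, growth is halved. TGI: total growth inhibition.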

Key:
Assay in all cases: NCI tumour cell line growth inhibition, 384-well format
SK-OV-3 ovarian = system: SK-OV-3 ovarian
TK-10 renal = system: TK-10 renal
SNB-75 CNS = system: SNB-75 CNS
MDA-MB-231 breast = system: MDA-MB-231 breast
DU-145 prostate = system: DU-145 prostate
SNB-19 CNS = system: SNB-19 CNS
786-0 renal = system: 786-0 renal
OVCAR-5 ovarian = system: OVCAR-5 ovarian
T-47D breast = system: T-47D breast
UO-31 renal = system: UO-31 renal
HCC-2998 colon = system: HCC-2998 colon
SR leukemia = system: SR leukemia
SW-620 colon = system: SW-620 colon
OVCAR-8 ovarian = system: OVCAR-8 ovarian
NCI-H226 lung = system: NCI-H226 lung
MCF7 breast = system: MCF7 breast
HOP-62 NSCLC = system: HOP-62 NSCLC
RPMI-8226 leukemia = system: RPMI-8226 leukemia
MDA-MB-468 breast = system: MDA-MB-468 breast
ACHN renal = system: ACHN renal
SK-MEL-5 melanoma = system: SK-MEL-5 melanoma
A549 NSCLC = system: A549 NSCLC
COLO 205 colon = system: COLO 205 colon
BT-549 breast = system: BT-549 breast
RXF 393 renal = system: RXF 393 renal
MDA-MB-435 melanoma = system: MDA-MB-435 melanoma
IGROV1 ovarian = system: IGROV1 ovarian
CAKI-1 renal = system: CAKI-1 renal
HCT-15 colon = system: HCT-15 colon
NCI-H322M lung = system: NCI-H322M lung
MALME-3M melanoma = system: MALME-3M melanoma
MOLT-4 leukemia = system: MOLT-4 leukemia
EKVX NSCLC = system: EKVX NSCLC
NCI/ADR-RES ovarian = system: NCI/ADR-RES ovarian
SF-268 CNS = system: SF-268 CNS
HT29 colon = system: HT29 colon
SF-295 CNS = system: SF-295 CNS
UACC-257 melanoma = system: UACC-257 melanoma
NCI-H460 NSCLC = system: NCI-H460 NSCLC
UACC-62 melanoma = system: UACC-62 melanoma
K-562 leukemia = system: K-562 leukemia
NCI-H23 lung = system: NCI-H23 lung
SN12C renal = system: SN12C renal
NCI-H522 lung = system: NCI-H522 lung
HL-60(TB) leukemia = system: HL-60(TB) leukemia
A498 renal = system: A498 renal
SF-539 CNS = system: SF-539 CNS
LOX IMVI melanoma = system: LOX IMVI melanoma
SK-MEL-28 melanoma = system: SK-MEL-28 melanoma
OVCAR-4 ovarian = system: OVCAR-4 ovarian
M14 melanoma = system: M14 melanoma
HOP-92 NSCLC = system: HOP-92 NSCLC
OVCAR-3 ovarian = system: OVCAR-3 ovarian
HS 578T breast = system: HS 578T breast
PC-3 prostate = system: PC-3 prostate
KM12 colon = system: KM12 colon

In the case of `C=CC(=O)N1CC[C@H](n2nc(C#Cc3cc(OC)cc(OC)c3)c3c(N)ncnc32)C1`, the GI50 (SK-OV-3 ovarian) is reported as 5.24 µM, the TGI (SK-OV-3 ovarian) is reported as 41.5 µM and the GI50 (TK-10 renal) is reported as 5.66 µM. For the same compound, the TGI (TK-10 renal) was 71.7 µM, the GI50 (SNB-75 CNS) was 1.44 µM and the TGI (SNB-75 CNS) was 10.7 µM. It also gave a GI50 (MDA-MB-231 breast) of 4.03 µM, a TGI (MDA-MB-231 breast) of 68.2 µM and a GI50 (DU-145 prostate) of 9.04 µM. The TGI (DU-145 prostate) was > 100 µM, the GI50 (SNB-19 CNS) was 12.6 µM and the TGI (SNB-19 CNS) was > 100 µM. It also gave a GI50 ([…]-0 renal) of 2.96 µM, a TGI (786-0 renal) of 19.1 µM and a GI50 (OVCAR-5 ovarian) of 49.4 µM. For the same compound, the TGI (OVCAR-5 ovarian) was > 100 µM, the GI50 (T-47D breast) was 3.29 µM and the TGI (T-47D breast) was 52.6 µM. For the same compound, the GI50 (UO-31 renal) was 17.6 µM, the TGI (UO-31 renal) was > 100 µM and the GI50 (HCC-2998 colon) was 2.98 µM. For the same compound, the TGI (HCC-2998 colon) was 11 µM, the GI50 (SR leukemia) was 3.11 µM and the TGI (SR leukemia) was 13 µM. For the same compound, the GI50 (SW-620 colon) was 13.2 µM, the TGI (SW-620 colon) was 32.6 µM and the GI50 (OVCAR-8 ovarian) was 15.9 µM. For the same compound, the TGI (OVCAR-8 ovarian) was 72.3 µM, the GI50 (NCI-H226 lung) was 12.7 µM and the TGI (NCI-H226 lung) was > 100 µM. For the same compound, the GI50 (MCF7 breast) was 4.34 µM, the TGI (MCF7 breast) was > 100 µM and the GI50 (HOP-62 NSCLC) was 6.44 µM. For the same compound, the TGI (HOP-62 NSCLC) was > 100 µM, the GI50 (RPMI-8226 leukemia) was 1.53 µM and the TGI (RPMI-8226 leukemia) was 4.41 µM. For the same compound, the GI50 (MDA-MB-468 breast) was 2.09 µM, the TGI (MDA-MB-468 breast) was 4.53 µM and the GI50 (ACHN renal) was 6.8 µM. For the same compound, the TGI (ACHN renal) was 72.9 µM, the GI50 (SK-MEL-5 melanoma) was 5.05 µM and the TGI (SK-MEL-5 melanoma) was 18.9 µM. The GI50 (A549 NSCLC) was 12.7 µM, the TGI (A549 NSCLC) was > 100 µM and the GI50 (COLO 205 colon) was 30 µM. For the same compound, the TGI (COLO 205 colon) was > 100 µM, the GI50 (BT-549 breast) was 1.51 µM and the TGI (BT-549 breast) was 12.2 µM. The GI50 (RXF 393 renal) was 6.72 µM, the TGI (RXF 393 renal) was 66.4 µM and the GI50 (MDA-MB-435 melanoma) was 31.1 µM. The TGI (MDA-MB-435 melanoma) was > 100 µM, the GI50 (IGROV1 ovarian) was 4.93 µM and the TGI (IGROV1 ovarian) was 20.7 µM. The GI50 (CAKI-1 renal) was 4.44 µM, the TGI (CAKI-1 renal) was > 100 µM and the GI50 (HCT-15 colon) was 4.46 µM. For the same compound, the TGI (HCT-15 colon) was 25.6 µM, the GI50 (NCI-H322M lung) was 11.5 µM and the TGI (NCI-H322M lung) was > 100 µM. The GI50 (MALME-3M melanoma) was 7.39 µM, the TGI (MALME-3M melanoma) was 31.4 µM and the GI50 (MOLT-4 leukemia) was 2.47 µM. The TGI (MOLT-4 leukemia) was 5.06 µM, the GI50 (EKVX NSCLC) was 13.4 µM and the TGI (EKVX NSCLC) was 98.9 µM. For the same compound, the GI50 (NCI/ADR-RES ovarian) was 11.1 µM, the TGI (NCI/ADR-RES ovarian) was 44.3 µM and the GI50 (SF-268 CNS) was 9.33 µM. For the same compound, the TGI (SF-268 CNS) was 75 µM, the GI50 (HT29 colon) was 17.5 µM and the TGI (HT29 colon) was > 100 µM. For the same compound, the GI50 (SF-295 CNS) was 25.5 µM, the TGI (SF-295 CNS) was > 100 µM and the GI50 (UACC-257 melanoma) was 2.86 µM. For the same compound, the TGI (UACC-257 melanoma) was 8.35 µM, the GI50 (NCI-H460 NSCLC) was 12 µM and the TGI (NCI-H460 NSCLC) was > 100 µM. The GI50 (UACC-62 melanoma) was 5.78 µM, the TGI (UACC-62 melanoma) was 30.5 µM and the GI50 (K-562 leukemia) was 12 µM. The TGI (K-562 leukemia) was > 100 µM, the GI50 (NCI-H23 lung) was 10.5 µM and the TGI (NCI-H23 lung) was 28.6 µM. It also gave a GI50 (SN12C renal) of 3.64 µM, a TGI (SN12C renal) of 33.9 µM and a GI50 (NCI-H522 lung) of 4.39 µM. The TGI (NCI-H522 lung) was 14.2 µM, the GI50 (HL-60(TB) leukemia) was 4.6 µM and the TGI (HL-60(TB) leukemia) was 16 µM. For the same compound, the GI50 (A498 renal) was 2.73 µM, the TGI (A498 renal) was 18.2 µM and the GI50 (SF-539 CNS) was 4.52 µM. The TGI (SF-539 CNS) was 20.6 µM, the GI50 (LOX IMVI melanoma) was 6.09 µM and the TGI (LOX IMVI melanoma) was 22.1 µM. The GI50 (SK-MEL-28 melanoma) was 17.7 µM, the TGI (SK-MEL-28 melanoma) was 91.2 µM and the GI50 (OVCAR-4 ovarian) was 2.02 µM. For the same compound, the TGI (OVCAR-4 ovarian) was 25.6 µM, the GI50 (M14 melanoma) was 16.9 µM and the TGI (M14 melanoma) was 69.8 µM. The GI50 (HOP-92 NSCLC) was 2.52 µM, the TGI (HOP-92 NSCLC) was 14.2 µM and the GI50 (OVCAR-3 ovarian) was 3.45 µM. The TGI (OVCAR-3 ovarian) was 17.6 µM, the GI50 (HS 578T breast) was 2.74 µM and the TGI (HS 578T breast) was 11.5 µM. The GI50 (PC-3 prostate) was 20.1 µM, the TGI (PC-3 prostate) was > 100 µM and the GI50 (KM12 colon) was 10.2 µM. The TGI (KM12 colon) was 42.1 µM.
